The source made the active and inactive calls. How the calls were made is not given here.

The data set relates to CCRIS mutagenicity, Ames/micronucleus/aberration tests. Kind of data set: CCRIS mutagenicity studies.
Where [1] appears, read: Test System: AMES SALMONELLA TYPHIMURIUM, Strain/Indicator: TA98, Metabolic Activation: NONE, Method: PREINCUBATION
[2] abbreviates: Test System: AMES SALMONELLA TYPHIMURIUM, Strain/Indicator: TA100, Metabolic Activation: NONE, Method: PREINCUBATION
Where [3] appears, read: Test System: AMES SALMONELLA TYPHIMURIUM, Strain/Indicator: TA100, Metabolic Activation: NONE, Method: STANDARD PLATE.

For `O=[N+]([O-])c1ccc2c(c1)Oc1cc([N+](=O)[O-])ccc1O2`, the mutagenic call is, setting by setting: (Test System: AMES SALMONELLA TYPHIMURIUM, Strain/Indicator: TA98(1,8-DNP6), Metabolic Activation: NONE, Method: PREINCUBATION) “active; positive”; (Test System: AMES SALMONELLA TYPHIMURIUM, Strain/Indicator: TA98(1,8-DNP6), Metabolic Activation: NONE, Method: SUSPENSION) “active; positive”; (Test System: AMES SALMONELLA TYPHIMURIUM, Strain/Indicator: TA98(1,8-DNP6), Metabolic Activation: RAT, LIVER, S-9, PCB (5%), Method: PREINCUBATION) “active; positive”; (Test System: AMES SALMONELLA TYPHIMURIUM, Strain/Indicator: TA98(NR), Metabolic Activation: NONE, Method: PREINCUBATION) “inactive; negative”; (Test System: AMES SALMONELLA TYPHIMURIUM, Strain/Indicator: TA98(NR), Metabolic Activation: NONE, Method: SUSPENSION) “inactive; negative”; (Test System: AMES SALMONELLA TYPHIMURIUM, Strain/Indicator: TA98(NR), Metabolic Activation: RAT, LIVER, S-9 (15%), Method: PREINCUBATION) “active; positive”. Moreover, the mutagenic call (Test System: AMES SALMONELLA TYPHIMURIUM, Strain/Indicator: TA98(NR), Metabolic Activation: RAT, LIVER, S-9, 3-METHYLCHOLANTHRENE (15%), Method: PREINCUBATION) is “active; positive”; the mutagenic call (Test System: AMES SALMONELLA TYPHIMURIUM, Strain/Indicator: TA98(NR), Metabolic Activation: RAT, LIVER, S-9, BETA-NAPHTHOFLAVONE (15%), Method: PREINCUBATION) is “active; positive”; the mutagenic call (Test System: AMES SALMONELLA TYPHIMURIUM, Strain/Indicator: TA98(NR), Metabolic Activation: RAT, LIVER, S-9, PCB (5 OR 15%), Method: PREINCUBATION) is “active; positive”; the mutagenic call (Test System: AMES SALMONELLA TYPHIMURIUM, Strain/Indicator: TA98(NR), Metabolic Activation: RAT, LIVER, S-9, PHENOBARBITAL (15%), Method: PREINCUBATION) was “active; positive”; the mutagenic call under setting [1] is “active; positive”; the mutagenic call (Test System: AMES SALMONELLA TYPHIMURIUM, Strain/Indicator: TA98, Metabolic Activation: NONE, Method: SUSPENSION) was “active; positive”. Also, the mutagenic call (Test System: AMES SALMONELLA TYPHIMURIUM, Strain/Indicator: TA98, Metabolic Activation: RAT, LIVER, S-9, PCB (5%), Method: PREINCUBATION) was “active; positive”; the mutagenic call (Test System: AMES SALMONELLA TYPHIMURIUM, Strain/Indicator: TA98, Metabolic Activation: RAT, LIVER, S-9, PCB, Method: SUSPENSION) is “active; positive”; the mutagenic call under setting [2] was “inactive; negative”; the mutagenic call (Test System: AMES SALMONELLA TYPHIMURIUM, Strain/Indicator: TA100, Metabolic Activation: NONE, Method: SUSPENSION) was “inactive; negative”; the mutagenic call (Test System: AMES SALMONELLA TYPHIMURIUM, Strain/Indicator: TA100, Metabolic Activation: RAT, LIVER, S-9, PCB (5%), Method: PREINCUBATION) was “inactive; negative”; the mutagenic call (Test System: AMES SALMONELLA TYPHIMURIUM, Strain/Indicator: TA100, Metabolic Activation: RAT, LIVER, S-9, PCB, Method: SUSPENSION) was “active; positive”.

`Brc1cc(Br)c(-c2cc(Br)c(Br)cc2Br)cc1Br`: the mutagenic call (Test System: CHINESE HAMSTER V-79, Strain/Indicator: V-79 (HGPRT)/6-THIOGUANINE, Metabolic Activation: NONE) was “inactive; negative”.

With `CCCCCCCCCCCCCO`, the mutagenic call runs as follows: under setting [1], “inactive; negative”; (Test System: AMES SALMONELLA TYPHIMURIUM, Strain/Indicator: TA98, Metabolic Activation: RAT LIVER S-9, PHENOBARBITAL AND BETA-NAPHTHOFLAVONE, Method: PREINCUBATION) “inactive; negative”; under setting [2], “inactive; negative”; (Test System: AMES SALMONELLA TYPHIMURIUM, Strain/Indicator: TA100, Metabolic Activation: RAT LIVER S-9, PHENOBARBITAL AND BETA-NAPHTHOFLAVONE, Method: PREINCUBATION) “inactive; negative”; (Test System: AMES SALMONELLA TYPHIMURIUM, Strain/Indicator: TA1535, Metabolic Activation: NONE, Method: PREINCUBATION) “inactive; negative”; (Test System: AMES SALMONELLA TYPHIMURIUM, Strain/Indicator: TA1535, Metabolic Activation: RAT LIVER S-9, PHENOBARBITAL AND BETA-NAPHTHOFLAVONE, Method: PREINCUBATION) “inactive; negative”. Besides, the mutagenic call was “inactive; negative” (Test System: AMES SALMONELLA TYPHIMURIUM, Strain/Indicator: TA1537, Metabolic Activation: NONE, Method: PREINCUBATION); “inactive; negative” (Test System: AMES SALMONELLA TYPHIMURIUM, Strain/Indicator: TA1537, Metabolic Activation: RAT LIVER S-9, PHENOBARBITAL AND BETA-NAPHTHOFLAVONE, Method: PREINCUBATION); “inactive; negative” (Test System: E.COLI, Strain/Indicator: WP2UVRA/PKM101, Metabolic Activation: NONE, Method: PREINCUBATION); “inactive; negative” (Test System: E.COLI, Strain/Indicator: WP2UVRA/PKM101, Metabolic Activation: RAT LIVER S-9, PHENOBARBITAL AND BETA-NAPHTHOFLAVONE, Method: PREINCUBATION).

For `COc1ccc(OC)c(N=Nc2c(O)ccc3ccccc23)c1`, the mutagenic call reads like this: (Test System: AMES SALMONELLA TYPHIMURIUM, Strain/Indicator: TA98, Metabolic Activation: HAMSTER, LIVER, S-9, AROCLOR 1254 (30%), Method: PREINCUBATION) “active; positive”; under setting [1], “inactive; negative”; (Test System: AMES SALMONELLA TYPHIMURIUM, Strain/Indicator: TA100, Metabolic Activation: HAMSTER, LIVER, S-9, AROCLOR 1254 (30%), Method: PREINCUBATION) “active; positive”; under setting [2], “inactive; negative”; (Test System: AMES SALMONELLA TYPHIMURIUM, Strain/Indicator: TA100, Metabolic Activation: RAT, LIVER, S-9, AROCLOR 1254 (30%), Method: PREINCUBATION) “active; positive”.

Consider `CN(N=O)C(=O)Oc1cccc2c1OC(C)(C)C2`, for which the mutagenic call (End Point: IN VIVO MICRONUCLEUS, Test System: BONE MARROW POLYCHROMATIC ERYTHROCYTES, Species: MOUSE, Strain/Sex: KM/MALE, FEMALE, Route: IP INJECTION) is “active; positive”.

Regarding `Cc1cccn2c(=O)c(-c3nnn[nH]3)cnc12`, the mutagenic call was “inactive; negative” (Test System: AMES SALMONELLA TYPHIMURIUM, Strain/Indicator: TA98, Metabolic Activation: NONE, Method: STANDARD PLATE); “inactive; negative” (Test System: AMES SALMONELLA TYPHIMURIUM, Strain/Indicator: TA98, Metabolic Activation: S-9, Method: STANDARD PLATE); “inactive; negative” under setting [3]; “inactive; negative” (Test System: AMES SALMONELLA TYPHIMURIUM, Strain/Indicator: TA100, Metabolic Activation: S-9, Method: STANDARD PLATE); “inactive; negative” (Test System: AMES SALMONELLA TYPHIMURIUM, Strain/Indicator: TA1535, Metabolic Activation: NONE, Method: STANDARD PLATE); “inactive; negative” (Test System: AMES SALMONELLA TYPHIMURIUM, Strain/Indicator: TA1535, Metabolic Activation: S-9, Method: STANDARD PLATE). The mutagenic call is, setting by setting: (Test System: AMES SALMONELLA TYPHIMURIUM, Strain/Indicator: TA1537, Metabolic Activation: NONE, Method: STANDARD PLATE) “inactive; negative”; (Test System: AMES SALMONELLA TYPHIMURIUM, Strain/Indicator: TA1537, Metabolic Activation: S-9, Method: STANDARD PLATE) “inactive; negative”; (Test System: AMES SALMONELLA TYPHIMURIUM, Strain/Indicator: TA1538, Metabolic Activation: NONE, Method: STANDARD PLATE) “inactive; negative”; (Test System: AMES SALMONELLA TYPHIMURIUM, Strain/Indicator: TA1538, Metabolic Activation: S-9, Method: STANDARD PLATE) “inactive; negative”; (Test System: E. COLI, Strain/Indicator: WP2 UVRA, Metabolic Activation: NONE, Method: STANDARD PLATE) “inactive; negative”; (Test System: E. COLI, Strain/Indicator: WP2 UVRA, Metabolic Activation: S-9, Method: STANDARD PLATE) “inactive; negative”.

As to `C[N+](C)(C)CC(=O)O`, the mutagenic call is, setting by setting: under setting [3], “inactive; negative”; (Test System: AMES SALMONELLA TYPHIMURIUM, Strain/Indicator: TA100, Metabolic Activation: RAT, LIVER, S-9, AROCLOR 1254, Method: STANDARD PLATE) “inactive; negative”.

As to `CC(C)CNC(=O)C=Cc1ccc([N+](=O)[O-])o1`, the mutagenic call under setting [1] is “active; positive”.

These data come from PubChem BioAssay AID1259407 (Chemical Carcinogenesis Research Information System (CCRIS), 2018).
